Assay results reported in patent US4032573A, “Ortho-acylated anilide derivatives and salts thereof” (Sumitomo Chemical Company, Limited, priority 1976, dated 1977).

What was measured:
mice = test: Anti-arrhythmic activity in mice (method of Lawson), intraperitoneal injection; assay type: in vivo; details: Mus musculus, ip
Experimental: 2. Anti-arrhythmic activity
The anti-arrhythmic activity of each of the compounds was determined in accordance with the method of J. W. Lawson, Journal Pharmacol. Exp. Ther., 160, 22 (1967).

guinea pigs = test: Local anesthetic activity in guinea pigs (method of Bulbring and Waida), intracutaneous injection; assay type: in vivo
Experimental: 1. Local anesthetic activity
The local anesthetic activity of each of the compounds was determined in accordance with the method of Bulbring E. and Waida, Journal Pharmacol. Exp. Ther., 85, 78 (1945).

Row | Compound | ED50 (mice) [mg/kg] | Local anesthetic activity in guinea pigs ED50 intracutaneous injection (guinea pigs) [W/V %]
1 | CCN(CC)CCC(=O)Nc1c(C)cccc1C(C)=O | 50 | 0.33
2 | CCN(CC)CC(=O)Nc1c(C)cccc1C(C)=O | 80 | 0.12
3 | CCCC(=O)c1cccc(C)c1NC(=O)CCN(CC)CC | 25 | 0.09
4 | CCN(CC)CC(=O)Nc1ccc(C(C)=O)cc1 | 250 | 1.0
5 | CCN(CC)CC(=O)Nc1cccc(C(C)=O)c1 | 180 | 1.0
6 | CCN(CC)CCC(=O)Nc1cc(C(C)=O)ccc1C | 97 | 1.48
